# Measured values from patent US20230390283A1, “USES OF CHK2 INHIBITORS” (The University of Birmingham, priority 2020, published 2023).
# Entries after “also recorded” stand apart in the source; their conditions may differ.
# How the values were obtained:
# [1] = test system: primary adult rat dorsal root ganglion neuron (DRGN) cultures; assay: DRGN survival and neurite outgrowth in culture; assay type: cell-based; conditions: for optimal concentration that promoted DRGN/RGC survival and neurite outgrowth: preliminary experiments, DRGN/RGC cultures
# Description: (§1) Rat DRGN and retinal cultures. […] Cells were cultured for 4 days in a humidified chamber at 37° C. and 5% CO2 before being subjected to quantitative RT-PCR or immunocytochemistry, as described below.
# Immunocytochemistry. […] Slides were then viewed with an epi-fluorescent Axioplan 2 microscope, equipped with an AxioCam HRc and running Axiovision Software (all from Carl Zeiss, Hertfordshire, UK).
# [2] = test system: T8 dorsal column (DC) crush model of spinal cord injury; assay: DC crush injury model: tape sensing and removal test (sensory function); assay type: in vivo, rat; conditions: followed over 6 weeks
# Description: (§2) DC crush injury model. Rats were injected subcutaneously with 0.05 ml Buprenorphine to provide analgesia prior to surgery and anaesthetised using 5% of Isoflurane in 1.8 ml/l of O2 with body temperature and heart rate monitored throughout surgery.
# (§3) Chk2 inhibition studies in the DC crush injury model. […] Chk1i (LY2603618) was used at equimolar concentrations for each experiment. Rats were killed in a rising concentration of CO2 at either 28 d for immunohistochemistry and western blot analyses or 6 weeks for electrophysiology and functional tests.
# (§4) Functional tests. […] Experiments were performed by 2 observers (treatment conditions were masked) in the same order, the same time of day and each test performed for 3 individual trials.
# [3] = test system: retinal nerve fibre layer; assay: Optic neuritis model: RNFL thickness by OCT; assay type: in vivo, mice; conditions: day 21
# Description: (§5) Induction of optic neuritis. […] Animals were intraperitoneally injected with 150 ng Bordetella pertussis toxin on day 0 and 2. Animals were monitored daily and assessed for the development of EAE. At the end of the experiment, animals were then killed by CO2 overdose.
# Measurement of RNFL thinning using optical coherence tomography (OCT). […] Examinations were recorded in both right (oculus dextrus, OD) and left eyes (oculus sinister, OS) of each animal at day 0 and day 21 after immunisation. […] A RNFL single exam using the automatic real time (ART) mode (allows averaging of 100 recordings) was produced for each mouse eye, which automatically measured RNFL thickness (μm) in a 30° circle surrounding the optic nerve head.
# [4] = test system: T8 dorsal column (DC) crush model of spinal cord injury; assay: DC crush injury model: horizontal ladder test (locomotor function); assay type: in vivo, rat; conditions: followed over 6 weeks
# Description: as §2, §3, §4
# Horizontal ladder test: This tests the animals locomotor function and is performed on a 0.9-meter-long horizontal ladder with a diameter of 15.5 cm and randomly adjusted rungs with variable gaps of 3.5-5.0 cm. The total number of steps taken to cross the ladder and the left and right rear paw slips being were recorded and the mean error rate was then calculated by dividing the number of slips by the total number of steps taken.
# [5] = test system: RGC; assay: Optic neuritis model: RGC survival (Fluorgold backfilled wholemounts); assay type: in vivo, mice; conditions: 21 days after induction
# Description: as §5
# (§6) Assessment of RGC survival.
# [6] = test system: T8 dorsal column (DC) crush model of spinal cord injury; assay: DC crush injury model: electrophysiology (compound action potentials); assay type: in vivo, rat; conditions: 6 weeks after DC injury
# Description: as §2, §3
# Electrophysiology. […] Briefly, with the experimenter masked to the treatment conditions, silver wire electrodes applied single-current pulses (0.05 ms) through a stimulus isolation unit in increments (0.2, 0.3, 0.6, 0.8, and 1.2 mA) at L1-L2 and compound action potentials (CAP) were recorded at C4-C5 along the surface of the midline spinal cord. Spike 2 software was then used to calculate CAP amplitudes between the negative deflection after the stimulus artifact and the next peak of the wave. CAP area was calculated by rectifying the negative CAP component (full-wave rectification) and measuring its area. At the different stimulation intensities. […] Representative CAP traces are processed output data from Spike 2 software.
# [7] = test system: dorsal column (DC) axons; assay: DC crush injury model: GAP43+ DC axon regeneration; assay type: in vivo, rat
# [8] = test system: RGC; assay: Glaucoma model: RGC survival in retinal wholemounts; assay type: in vivo, rat; conditions: 30 days after induction of glaucoma
# Description: Induction of glaucoma. […] At day zero, a self-sealing incision was made though the cornea into the anterior chamber enabling twice weekly intracameral injections of 3.5 μl of TGFβ2 (5 ng/μl) using glass micropipettes for 30 days. Vehicle, comprising saline, was injected in control groups. Intraocular pressure was measured using an iCare Tonolab rebound tonometer (Icare, Helsinki, Finland).
# as §6
# [9] = test system: RGC function; conditions: 24 days after ONC
# [10] = test system: pChk2^T68 and pChk2^T383; conditions: western blot and densitometry
# Description: as §1
# Protein extraction and western blot analysis. […] For densitometry, western blots were scanned into Adobe Photoshop (Adobe Systems Inc, San Jose, Calif., USA) and analysed using the built-in-macros for gel analysis in ImageJ (NIH, USA, http://imagej.nih.clov/ij).
compound,measurement,setting,value
NC(=O)c1ccc2[nH]c(-c3ccc(Oc4ccc(Cl)cc4)cc3)nc2c1 [BML-277],optimal concentration that promoted DRGN/RGC survival and neurite outgrowth,[1],5 µM
COc1cc2nc(-c3cc(F)ccc3O)nc(N[C@@H]3CNC[C@H]3C(C)(C)O)c2cc1OC [CCT241533],optimal concentration that promoted DRGN/RGC survival and neurite outgrowth,[1],10 µM
Cc1cnc(NC(=O)Nc2cc(Br)c(C)cc2OC[C@@H]2CNCCO2)cn1 [LY2603618],tape sensing/removal test performance,[2]; listed as Chk1 i,a significant deficit remained
same,tape sensing/removal test performance,[2]; listed as Chk1i,a significant deficit remained
same,RNFL thickness in optic neuritis,[3],no effect
same,effect on DRGN/RGC survival,[1]; 1-50 μM,no effect
same,"effect on DRGN survival, % DRGN with neurites and neurite length",[1]; 4 days culture,no effect
same,ladder crossing test performance,[4]; listed as Chk1 i,a deficit remaining
same,ladder crossing test performance,[4]; listed as Chk1i,a significant deficit remains; also recorded: a deficit remaining
same,RGC survival in optic neuritis,[5],no effect
same,CAP area at different stimulation intensities,[6],significantly attenuated
same,negative CAP amplitudes,[6]; different stimulation intensities,significantly attenuated
same,DC axon regeneration beyond the lesion site,[7]; listed as Chk1 i,few GAP43^+ axons
same,DC axon regeneration beyond the lesion site,[7]; listed as Chk1i,no axon regeneration beyond the lesion site
same,RGC survival in glaucoma,[8],no effect
same,ERG traces and pSTR amplitude,[9],no effect
COc1cccc(OCCCN)c1-c1cc(Nc2cnc(C#N)cn2)n[nH]1 [Prexasertib],optimal concentration that promoted DRGN/RGC survival and neurite outgrowth,[1],10 µM
CCT241533,"Chk2 phosphorylation (pChk2^T68, pChk2^T383) in DRGN cultures",[10],suppresses
"FGF2: positive control for DRGN cultures, pre-optimised 10 ng/ml",% DRGN with neurites,[1]; 4 days culture,42%
same,mean neurite length,"[1]; 4 days culture, controls 12 μm",180 μm
